Experimental data as given in patent US8980908B2, “Non-peptidyl, potent, and selective mu opioid receptor antagonists and their use in treating opioid addiction and opioid induced constipation” (Virginia Commonwealth University, priority 2009, dated 2015).
“And” between values parts separate entries of the source, which are not always exact repeats. Equal entries are not always repeated. Where two headings read alike, the source gives them in different places.

Tests used:
[1] = biological target: T1, MOR (Mus musculus, UniProt P42866); settings: [35S]GTPγS assays
[2] = biological target: DOR (UniProt P41143); format: binding; parameters: Ki δ; four experiments; other: three experiments; other: SNC80 5 μM; Ki δ
[3] = biological target: DOR (UniProt P41143); assay: DOR [35S]GTPγS binding assay (Example 5); format: biochemical; parameters: Ki δ; four experiments; other: three experiments; other: SNC80 5 μM; Ki δ
Protocol: (§1) The KOR full agonist 2-(3,4-dichlorophenyl)-N-methyl-N-[(1R,2R)-2-pyrrolidin-1-ylcyclohexyl]acetamide 17 (U50,488)41 and DOR full agonist 4-[(R)-[(2S,5R)-4-allyl-2,5-dimethylpiperazin-1-yl](3-methoxyphenyl)methyl]-N,N-diethylbenzamide 18 (SNC80)42 were included in the assays as reference compounds for a maximal effect at the KOR and the DOR, respectively.
(§2) The radioligand binding assay and the [^35S]GTPγS binding assay were conducted using monoclonal OR-expressed Chinese hamster ovarian (CHO) cell lines as described previously.^22,29,36,37 Briefly, for the competition binding assay, [^3H]NLX, [^3H]DPN, and [^3H]NTI were used to label the MOR, the KOR, and the DOR, respectively. Aliquots of a membrane protein (30 μg) were incubated with the corresponding radioligand in the presence of different concentrations of the ligand under investigation in TME buffer (50 mM Tris, 3 mM MgCl2, 0.2 mM EGTA, pH 7.7) at 30° C. for 1.5 h. The bound radioactive ligand was separated from the free radioligand by filtration using the Brandel harvester (Biomedical Research & Development Laboratories, MD). […] The potency of the drugs in displacing the specific binding of the radioligand was determined by linear regression analysis of Hill plots. […] The [^35S]GTPγS functional assays were conducted in the same cell membranes used for the receptor binding assays. Membrane proteins (10 μg) were incubated with varying concentrations of compounds, GDP (10 μM) and 0.1 nM [^35S]GTPγS in assay buffer (50 mM Tris, 3 mM MgCl2, 100 mM NaCl, 0.2 mM EGTA, pH 7.7) for 1.5 h at 30° C. Nonspecific binding was determined with 20 μM unlabeled GTPγS.

[4] = biological target: T2, KOR (Homo sapiens, UniProt P41145); assay: Competitive radioligand binding, [3H]diprenorphine, OR-expressed CHO membranes (Examples 5 and 6)
T2 construct: expressed in transfected cells; host or cells: CHO (Chinese hamster ovary) cell line, membrane preparation

[5] = biological target: T1, MOR; assay: biochemical; settings: read-out: MOR [35S]GTPγS Binding % Emax of DAMGO
[6] = biological target: T2, KOR; assay: KOR [35S]GTPγS binding assay (Example 5); format: biochemical; settings: for Emax: read-out: KOR [35S]GTPγS Binding % Emax of U50,488
Protocol: as §1, §2

[7] = biological target: T1, MOR; assay: Competitive radioligand binding, [3H]naloxone, OR-expressed CHO membranes (Examples 5 and 6); parameters: expressed in transfected cells; host or cells: CHO (Chinese hamster ovary) cell line, membrane preparation; settings: Table 8; Ki ratio
[8] = tested on: morphine antinociceptive effect in mice; assay: Warm-water tail immersion assay, antagonism of morphine antinociception (Example 5); format: in vivo, mouse (Swiss-Webster); settings: antagonizing morphine 10 mg/kg; s.c.
[9] = biological target: T1, MOR; assay: [35S]GTPγS functional assay (Example 1); format: biochemical; parameters: expressed in transfected cells; host or cells: CHO (Chinese hamster ovary) cell line, membrane preparation
[10] = tested on: patients with OIC; settings: cited from earlier work
[11] = biological target: mu, delta and kappa opioid receptors; settings: cited from earlier work
[12] = biological target: T1, MOR; assay: 35S-GTP[γS]-binding functional assay in MOR expressing CHO cells (Example 2); format: biochemical; parameters: expressed in transfected cells; host or cells: CHO (Chinese hamster ovary) cell line, membrane preparation
Protocol: Furthermore, these systems express the receptor at high density to provide optimal signal-to-noise ratios in the radioligand and ^35S-GTP[γS] binding assays.
Aliquots of a membrane preparation were incubated with the radioligands in the presence of different concentrations of the drug under investigation at 30° C. for 1 h. […] The potency of the drugs in displacing the specific binding of the radioligand was determined from data using linear regression analysis of Hill plots. The IC50 values will then be determined and corrected to K1 values using the Cheng-Prusoff equation. Functional assays, including ^35S-GTP[γS]-binding assay were conducted in the same cell membranes used for the receptor binding assays.

[13] = tested on: morphine antinociception in mice; assay: Warm-water tail immersion test, blockade of morphine antinociception (Example 2); format: in vivo, mouse (Swiss Webster); settings: s.c., 5 min before morphine 10 mg/kg s.c.; 56 °C
[14] = tested on: morphine antinociceptive effect in mice; settings: antagonizing morphine 10 mg/kg; s.c.; cited from earlier work
[15] = tested on: chronic morphine-exposed mice; assay: Opioid withdrawal assays in morphine-pelleted mice; settings: naltrexone 1 mg/kg, counted over 20 minutes
[16] = read-out: Ki δ; Table 8 (NAQ analogues); four experiments
[17] = read-out: DOR [35S]GTPγS Binding EC50; three experiments

Molecule: O=C(N[C@H]1CC[C@@]2(O)[C@H]3Cc4ccc(O)c5c4[C@@]2(CCN3CC2CC2)[C@H]1O5)c1cc2cc([N+](=O)[O-])ccc2cn1 [Compound 11, 17-Cyclopropylmethyl-3,14β-dihydroxy-4,5α-epoxy-6α-(6-nitroisoquinoline-3-carboxamido)morphinan]
- Functional Selectivity δ/μ [1]: 3.4
- Functional Selectivity κ/μ [1]: 2.0
- Ki [2, 16]: 94.7 ± 1.1 nM
- DOR [35S]GTPγS Binding % Emax of SNC80 ([3]; SNC80 5 μM): 67.7 ± 2.0%
- EC50 [3, 17]: 108.1 ± 0.8 nM
- Ki [4]: 27.9 ± 2 nM
- Emax [5]: 12.5 ± 1.4%
- EC50 [6]: 62.6 ± 10.4 nM
- Emax [6]: 21.1 ± 0.4%
- Selectivity δ/μ [7]: 16
- Selectivity κ/μ [7]: 4.9
- AD50 values [8]: 0.92 (0.51-1.67) mg/kg (95% CL)

Molecule: C[C@@H](O)[C@H](NC(=O)[C@H]1NC(=O)[C@H]([C@@H](C)O)NC(=O)[C@H](CCCNC(=N)N)NC(=O)[C@@H](Cc2c[nH]c3ccccc23)NC(=O)[C@H](Cc2ccc(O)cc2)NC(=O)[C@@H](NC(=O)[C@H](N)Cc2ccccc2)CSSC1(C)C)C(N)=O [CTAP, D-Phe-Cys-Tyr-D-Trp-Arg-Thr-Pen-Thr-NH2]
- Percent Max of DAMGO ([9]; Emax of compound vs Emax of DAMGO (normalized to 100%)): 0.00%

Molecule: C[N@+]1(CC2CC2)CC[C@]23c4c5ccc(O)c4O[C@H]2C(=O)CC[C@@]3(O)[C@H]1C5 [MNTX, methylnaltrexone]
- efficiency to induce SBM ([10]; human, in vivo): ≤ 62%
- patients with laxation within 4 hours after the first dose ([10]; two major clinical trials, subcutaneous): 48% and 62%
- Ki value ratio delta/mu [11]: ≈ 24
- Ki value ratio kappa/mu [11]: 10

Molecule: COc1c(C(=O)N[C@H]2CC[C@@]3(O)[C@H]4Cc5ccc(O)c6c5[C@@]3(CCN4CC3CC3)[C@H]2O6)nc(Cl)c2ccccc12 [Compound 4, 17-Cyclopropylmethyl-3,14β-dihydroxy-4,5α-epoxy-6α-(1-chloro-4-methoxyisoquinoline-3-carboxamido)morphinan]
- Ki [2, 16]: 33.9 ± 0.5 nM
- DOR [35S]GTPγS Binding % Emax of SNC80 ([3]; SNC80 5 μM): 54.8 ± 0.1%
- EC50 [3, 17]: 32.6 ± 5.1 nM
- Ki [4]: 22.2 ± 2.1 nM
- Emax [5]: 51 ± 0.4%
- EC50 [6]: 26.4 ± 3.9 nM
- Emax [6]: 7.1 ± 0.5%

Molecule: C[C@@H](NC(=O)[C@@H](N)Cc1ccc(O)cc1)C(=O)NCC(=O)N(C)[C@@H](Cc1ccccc1)C(=O)NCCO [DAMGO, reference compound]
- Emax (% Stim) ([12]; n=3): 366.5 ± 23.0 % Stim
- Percent Max of DAMGO ([12]; normalized to full agonist DAMGO (3 μM)): 100.0 ± 6.2%
- Emax ([9]; DAMGO reference): 366±23 % stimulation over basal

Molecule: 17-Cyclopropylmethyl-3,14β-dihydroxy-4,5α-epoxy-6α-[(3′-isoquinolyl)acetamido]morphinan [Compound 9]
- AD50 value for blockade of morphine antinociception [13]: 0.456 (0.277 to 0.789) mg/kg (95% C.L.)
- Ki ([2]; Table 8 (NAQ analogues); four experiments; read-out: Ki δ): 162 ± 15 nM
- Ki ([2]; Table 12 (Example 6); read-out: Ki δ): 162 ± 15 nM
- DOR [35S]GTPγS Binding % Emax of SNC80 ([3]; SNC80 5 μM): 53.5 ± 5.4%
- EC50 ([3]; three experiments; read-out: DOR [35S]GTPγS Binding EC50): 98.6 ± 23.7 nM
- AD50 values (data taken from Li, et al.) [14]: 0.45 (0.27-0.78) mg/kg (95% CL)

Molecule: COc1cccc2c1[C@]13CCN(CC4CC4)[C@H](C2)[C@]1(OC)CCC(=O)C3 [cyprodime]
- Ki value ratio delta/mu [11]: ≈ 40
- Ki value ratio kappa/mu [11]: ≈ 45

Molecule: O=C1CC[C@@]2(O)[C@H]3Cc4ccc(O)c5c4[C@@]2(CCN3CC2CC2)[C@H]1O5 [Naltrexone]
- escape jumps [15]: 30.0±12.1
- wet-dog shakes [15]: 14.8±2.2
- AD50 values [8]: 0.006 (0.003-0.014) mg/kg (95% CL)
